Reference: the supplement of paper PMC10307832

Tests used:
Experiment in all cases: relative viability (nuclei count vs DMSO), 5 days (fraction); higher = more cells survive
LCLC-103H = system: LCLC-103H
How it was run: (§1)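 Values are medians from duplicate plates. Each reflects relative viability, defined as the nuclei count of treated wells over that of vehicle wells. Lung cancer cell lines in 1536-well plates were pin-tool dosed one day after seeding with one drug alone or with a fixed anchor-drug dose plus five library-drug doses (not always all listed) in √10 steps, then fixed, stained and imaged at 4× after 5 days.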

LXF-289 = system: LXF-289
How it was run: as §1

NCI-H1355 = system: NCI-H1355
How it was run: as §1

NCI-H1651 = system: NCI-H1651
How it was run: as §1

NCI-H1755 = system: NCI-H1755
How it was run: as §1

NCI-H1792 = system: NCI-H1792
How it was run: as §1

NCI-H1915 = system: NCI-H1915
How it was run: as §1

NCI-H2170 = system: NCI-H2170
How it was run: as §1

NCI-H2347 = system: NCI-H2347
How it was run: as §1

NCI-H3122 = system: NCI-H3122
How it was run: as §1

NCI-H322M = system: NCI-H322M
How it was run: as §1

NCI-H441 = system: NCI-H441
How it was run: as §1

NCI-H460 = system: NCI-H460
How it was run: as §1

NCI-H520 = system: NCI-H520
How it was run: as §1

NCI-H596 = system: NCI-H596
How it was run: as §1

NCI-H650 = system: NCI-H650
How it was run: as §1

NCI-H661 = system: NCI-H661
How it was run: as §1

NCI-H727 = system: NCI-H727
How it was run: as §1

PC-14 = system: PC-14
How it was run: as §1

RERF-LC-KJ = system: RERF-LC-KJ
How it was run: as §1

SK-MES-1 = system: SK-MES-1
How it was run: as §1

SW 900 = system: SW 900
How it was run: as §1

O=C(O)c1ccc(-c2c[nH]c3ncc(-c4ccccc4)cc23)cc1C1CCCC1 + O=C(c1cc(Cc2n[nH]c(=O)c3ccccc23)ccc1F)N1CCN(C(=O)C2CC2)CC1 [Olaparib] (partner 8 µM)
relative viability (LCLC-103H; first compound 0.04 µM): 0.728 | relative viability (LCLC-103H; first compound 0.1265 µM): 0.771 | relative viability (LCLC-103H; first compound 0.4 µM): 0.758 | relative viability (LCLC-103H; first compound 1.265 µM): 0.729 | relative viability (LXF-289; first compound 0.04 µM): 1.07 | relative viability (LXF-289; first compound 0.1265 µM): 0.935 | relative viability (LXF-289; first compound 0.4 µM): 0.709 | relative viability (LXF-289; first compound 1.265 µM): 0.507 | relative viability (NCI-H1355; first compound 0.04 µM): 0.786 | relative viability (NCI-H1355; first compound 0.1265 µM): 0.837 | relative viability (NCI-H1355; first compound 0.4 µM): 0.666 | relative viability (NCI-H1355; first compound 1.265 µM): 0.323 | relative viability (NCI-H1651; first compound 0.04 µM): 0.17 | relative viability (NCI-H1651; first compound 0.1265 µM): 0.187 | relative viability (NCI-H1651; first compound 0.4 µM): 0.176 | relative viability (NCI-H1651; first compound 1.265 µM): 0.192 | relative viability (NCI-H1755; first compound 0.04 µM): 0.879 | relative viability (NCI-H1755; first compound 0.1265 µM): 0.943 | relative viability (NCI-H1755; first compound 0.4 µM): 0.885 | relative viability (NCI-H1755; first compound 1.265 µM): 0.86 | relative viability (NCI-H1792; first compound 0.04 µM): 0.422 | relative viability (NCI-H1792; first compound 0.1265 µM): 0.655 | relative viability (NCI-H1792; first compound 0.4 µM): 0.446 | relative viability (NCI-H1792; first compound 1.265 µM): 0.405 | relative viability (NCI-H1915; first compound 0.04 µM): 0.266 | relative viability (NCI-H1915; first compound 0.1265 µM): 0.25 | relative viability (NCI-H1915; first compound 0.4 µM): 0.226 | relative viability (NCI-H1915; first compound 1.265 µM): 0.203 | relative viability (NCI-H2170; first compound 0.04 µM): 0.632 | relative viability (NCI-H2170; first compound 0.1265 µM): 0.606 | relative viability (NCI-H2170; first compound 0.4 µM): 0.569 | relative viability (NCI-H2170; first compound 1.265 µM): 0.468 | relative viability (NCI-H2347; first compound 0.04 µM): 0.593 | relative viability (NCI-H2347; first compound 0.1265 µM): 0.608 | relative viability (NCI-H2347; first compound 0.4 µM): 0.54 | relative viability (NCI-H2347; first compound 1.265 µM): 0.51 | relative viability (NCI-H3122; first compound 0.04 µM): 0.654 | relative viability (NCI-H3122; first compound 0.1265 µM): 0.666 | relative viability (NCI-H3122; first compound 0.4 µM): 0.602 | relative viability (NCI-H3122; first compound 1.265 µM): 0.617 | relative viability (NCI-H322M; first compound 0.04 µM): 0.856 | relative viability (NCI-H322M; first compound 0.1265 µM): 0.718 | relative viability (NCI-H322M; first compound 0.4 µM): 0.661 | relative viability (NCI-H322M; first compound 1.265 µM): 0.554 | relative viability (NCI-H441; first compound 0.04 µM): 0.606 | relative viability (NCI-H441; first compound 0.1265 µM): 0.563 | relative viability (NCI-H441; first compound 0.4 µM): 0.467 | relative viability (NCI-H441; first compound 1.265 µM): 0.265 | relative viability (NCI-H460; first compound 0.04 µM): 0.523 | relative viability (NCI-H460; first compound 0.1265 µM): 0.463 | relative viability (NCI-H460; first compound 0.4 µM): 0.456 | relative viability (NCI-H460; first compound 1.265 µM): 0.42 | relative viability (NCI-H520; first compound 0.04 µM): 0.337 | relative viability (NCI-H520; first compound 0.1265 µM): 0.416 | relative viability (NCI-H520; first compound 0.4 µM): 0.348 | relative viability (NCI-H520; first compound 1.265 µM): 0.271 | relative viability (NCI-H596; first compound 0.04 µM): 0.711 | relative viability (NCI-H596; first compound 0.1265 µM): 0.745 | relative viability (NCI-H596; first compound 0.4 µM): 0.749 | relative viability (NCI-H596; first compound 1.265 µM): 0.607 | relative viability (NCI-H650; first compound 0.04 µM): 0.372 | relative viability (NCI-H650; first compound 0.1265 µM): 0.432 | relative viability (NCI-H650; first compound 0.4 µM): 0.324 | relative viability (NCI-H650; first compound 1.265 µM): 0.256 | relative viability (NCI-H661; first compound 0.04 µM): 0.698 | relative viability (NCI-H661; first compound 0.1265 µM): 0.772 | relative viability (NCI-H661; first compound 0.4 µM): 0.744 | relative viability (NCI-H661; first compound 1.265 µM): 0.656 | relative viability (NCI-H727; first compound 0.04 µM): 0.629 | relative viability (NCI-H727; first compound 0.1265 µM): 0.713 | relative viability (NCI-H727; first compound 0.4 µM): 0.633 | relative viability (NCI-H727; first compound 1.265 µM): 0.563 | relative viability (PC-14; first compound 0.04 µM): 0.234 | relative viability (PC-14; first compound 0.1265 µM): 0.263 | relative viability (PC-14; first compound 0.4 µM): 0.268 | relative viability (PC-14; first compound 1.265 µM): 0.243 | relative viability (RERF-LC-KJ; first compound 0.04 µM): 0.9 | relative viability (RERF-LC-KJ; first compound 0.1265 µM): 0.788 | relative viability (RERF-LC-KJ; first compound 0.4 µM): 0.786 | relative viability (RERF-LC-KJ; first compound 1.265 µM): 0.473 | relative viability (SK-MES-1; first compound 0.04 µM): 0.716 | relative viability (SK-MES-1; first compound 0.1265 µM): 0.687 | relative viability (SK-MES-1; first compound 0.4 µM): 0.58 | relative viability (SK-MES-1; first compound 1.265 µM): 0.286 | relative viability (SW 900; first compound 0.04 µM): 0.768 | relative viability (SW 900; first compound 0.1265 µM): 1.04 | relative viability (SW 900; first compound 0.4 µM): 0.702 | relative viability (SW 900; first compound 1.265 µM): 0.475
